Results taken from US8404692B2, “Pyrimidin-4-yl-3, 4-dihydro-2H-pyrrolo [1,2A] pyrazin-1-one compounds” (Cyclacel Limited, priority 2005, dated 2013).

Each compound was assayed against T1, aurora-A (human) (Homo sapiens, UniProt O14965) (assay: Aurora-A (human) kinase assay). Conditions: read-out: Activity (Aurora A activity, IC50 grading).
T1 construct: purchased Upstate, Dundee, UK
T1 sequence (O14965 1-403): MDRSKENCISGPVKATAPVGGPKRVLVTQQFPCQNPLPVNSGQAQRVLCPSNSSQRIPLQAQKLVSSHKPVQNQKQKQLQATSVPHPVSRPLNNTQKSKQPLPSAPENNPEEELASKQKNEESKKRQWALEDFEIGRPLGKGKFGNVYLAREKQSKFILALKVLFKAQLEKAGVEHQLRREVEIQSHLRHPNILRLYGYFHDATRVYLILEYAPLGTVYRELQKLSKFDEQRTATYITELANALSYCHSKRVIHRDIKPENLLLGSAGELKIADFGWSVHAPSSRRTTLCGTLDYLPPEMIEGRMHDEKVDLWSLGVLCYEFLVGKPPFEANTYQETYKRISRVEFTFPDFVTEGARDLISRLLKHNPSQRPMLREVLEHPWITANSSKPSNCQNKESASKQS
Assay type: biochemical
Method: This was achieved by measurement of incorporation of radioactive phosphate from ATP into Kemptide substrate (LRRASLG), upon phosphorylation by commercially obtained aurora-A (human, Upstate; Dundee, UK). Assays were performed using 96-well plates and appropriate assay buffers (20 mM Tris, 25 mM β-glycerophosphate, 5 mM EGTA, 1 mM DTT, 1 mM sodium vanadate, pH 7.5), into which were added 2-5 ng of active enzyme with 500 μM substrate (Kemptide). The reactions were initiated by addition of MATP mix (15 mM MgCl2+100 μM ATP with 15-25 kBq per well of [γ-^32P]-ATP) and mixtures incubated for 30 min at 30° C. Reactions were stopped by addition of an equal volume of 75 mM aq orthophosphoric acid, followed by filtration through p81 filterplates (Whatman Polyfiltronics, Kent, UK). After washing 4 times with 75 mM aq orthophosphoric acid, plates were dried, scintillant added and incorporated radioactivity measured in a scintillation counter (TopCount, Packard Instruments, Pangbourne, Berks, UK). Compounds for kinase assay were made up as 10 mM stocks in DMSO and diluted into 10% DMSO in assay buffer. Data was analysed using curve-fitting software (XLfit version 4.0.2, IDBS, Guildford, Surrey, UK) to determine IC50 values (concentration of test compound which inhibits kinase activity by 50%).
With `COc1ccc(Nc2nccc(-c3c(C)c4n(c3C)CCNC4=O)n2)cc1` [Example I-4, 7-[2-(4-Methoxy-phenylamino)-pyrimidin-4-yl]-6,8-dimethyl-3,4-dihydro-2H-pyrrolo[1,2-a]pyrazin-1-one] the IC50 was < 1000 nM.
With `Cc1c(-c2ccnc(Nc3cccc([N+](=O)[O-])c3)n2)c(C)n2c1C(=O)NCC2` [Example I-5, 6,8-Dimethyl-7-[2-(3-nitro-phenylamino)-pyrimidin-4-yl]-3,4-dihydro-2H-pyrrolo[1,2-a]pyrazin-1-one] the IC50 was < 1000 nM.
`Cc1c(-c2ccnc(Nc3ccc(N(C)C)cc3)n2)c(C)n2c1C(=O)NCC2` [Example I-6, 7-[2-(4-Dimethylamino-phenylamino)-pyrimidin-4-yl]-6,8-dimethyl-3,4-dihydro-2H-pyrrolo[1,2-a]pyrazin-1-one] was tested, and the IC50 was < 1000 nM.
With `CC(=O)N1CCN(c2ccc(Nc3nccc(-c4c(C)c5n(c4C)CCNC5=O)n3)cc2)CC1` [Example I-7, 7-{2-[4-(4-Acetyl-piperazin-1-yl)-phenylamino]-pyrimidin-4-yl}-6,8-dimethyl-3,4-dihydro-2H-pyrrolo[1,2-a]pyrazin-1-one] the IC50 was < 1000 nM.
With `CC(=O)N1CCN(c2ccc(Nc3nccc(-c4c(C)c5n(c4C)CCNC5=O)n3)cc2C)CC1` [Example I-8, 7-{2-[4-(4-Acetyl-piperazin-1-yl)-3-methyl-phenylamino]-pyrimidin-4-yl}-6,8-dimethyl-3,4-dihydro-2H-pyrrolo[1,2-a]pyrazin-1-one] the IC50 was < 1000 nM.
For `COc1cc(Nc2nccc(-c3c(C)c4n(c3C)CCNC4=O)n2)ccc1N1CCN(C(C)=O)CC1` [Example I-9, 7-{2-[4-(4-Acetyl-piperazin-1-yl)-3-methoxy-phenylamino]-pyrimidin-4-yl}-6,8-dimethyl-3,4-dihydro-2H-pyrrolo[1,2-a]pyrazin-1-one], the IC50 was < 1000 nM.
With `Cc1c(-c2ccnc(Nc3ccc4cn[nH]c4c3)n2)c(C)n2c1C(=O)NCC2` [Example I-11, 7-[2-(1H-Indazol-6-ylamino)-pyrimidin-4-yl]-6,8-dimethyl-3,4-dihydro-2H-pyrrolo[1,2-a]pyrazin-1-one] the IC50 was < 1000 nM.
With `Cc1c(-c2ccnc(Nc3ccc4c(c3)OCC(=O)N4)n2)c(C)n2c1C(=O)NCC2` [Example I-12, 7-[4-(6,8-Dimethyl-1-oxo-1,2,3,4-tetrahydro-pyrrolo[1,2-a]pyrazin-7-yl)-pyrimidin-2-ylamino]-4H-benzo[1,4]oxazin-3-one] the IC50 was < 1000 nM.
`CCN(CC)c1ccc(Nc2nccc(-c3c(C)c4n(c3C)CCNC4=O)n2)cc1` [Example I-13, 7-[2-(4-Diethylamino-phenylamino)-pyrimidin-4-yl]-6,8-dimethyl-3,4-dihydro-2H-pyrrolo[1,2-a]pyrazin-1-one] was tested, and the IC50 was < 1000 nM.
`Cc1c(-c2ccnc(Nc3ccc(N4CCOCC4)nc3)n2)c(C)n2c1C(=O)NCC2` [Example I-13a, 6,8-Dimethyl-7-[2-(6-morpholin-4-yl-pyridin-3-ylamino)-pyrimidin-4-yl]-3,4-dihydro-2H-pyrrolo[1,2-a]pyrazin-1-one] was tested, and the IC50 was < 1000 nM.
With `COc1ccc(Nc2nccc(-c3c(C)c4n(c3C)CCNC4=O)n2)cn1` [Example I-13b, 7-[2-(6-Methoxy-pyridin-3-ylamino)-pyrimidin-4-yl]-6,8-dimethyl-3,4-dihydro-2H-pyrrolo[1,2-a]pyrazin-1-one] the IC50 was < 1000 nM.
`Cc1c(-c2ccnc(Nc3ccc(Br)cc3)n2)c(C)n2c1C(=O)NCC2` [Example I-14, 7-[2-(4-Bromo-phenylamino)-pyrimidin-4-yl]-6,8-dimethyl-3,4-dihydro-2H-pyrrolo[1,2-a]pyrazin-1-one] was tested, and the IC50 was < 1000 nM.
With `Cc1c(-c2ccnc(Nc3cccc(S(=O)(=O)CCO)c3)n2)c(C)n2c1C(=O)NCC2` [Example I-15, 7-{2-[3-(2-Hydroxy-ethanesulfonyl)-phenylamino]-pyrimidin-4-yl}-6,8-dimethyl-3,4-dihydro-2H-pyrrolo[1,2-a]pyrazin-1-one] the IC50 was < 1000 nM.
With `Cc1c(-c2ccnc(Nc3ccc4sc(C(=O)O)cc4c3)n2)c(C)n2c1C(=O)NCC2` [Example I-16, 5-[4-(6,8-Dimethyl-1-oxo-1,2,3,4-tetrahydro-pyrrolo[1,2-a]pyrazin-7-yl)-pyrimidin-2-ylamino]-benzo[b]thiophene-2-carboxylic acid] the IC50 was < 100 nM.
In the case of `Cc1c(-c2ccnc(Nc3ccc(O)cc3)n2)c(C)n2c1C(=O)NCC2` [Example I-17, 7-[2-(4-Hydroxy-phenylamino)-pyrimidin-4-yl]-6,8-dimethyl-3,4-dihydro-2H-pyrrolo[1,2-a]pyrazin-1-one], the IC50 is reported as < 1000 nM.
With `COc1cc(Nc2nccc(-c3c(C)c4n(c3C)CCNC4=O)n2)ccc1S(=O)(=O)NC(C)C` [Example I-18, 4-[4-(6,8-Dimethyl-1-oxo-1,2,3,4-tetrahydro-pyrrolo[1,2-a]pyrazin-7-yl)-pyrimidin-2-ylamino]-N-isopropyl-2-methoxy-benzenesulfonamide] the IC50 was < 100 nM.
In the case of `Cc1c(-c2ccnc(Nc3ccc(S(=O)(=O)NC(C)C)cc3)n2)c(C)n2c1C(=O)NCC2` [Example I-19, 4-[4-(6,8-Dimethyl-1-oxo-1,2,3,4-tetrahydro-pyrrolo[1,2-a]pyrazin-7-yl)-pyrimidin-2-ylamino]-N-isopropyl-benzenesulfonamide], the IC50 is reported as < 1000 nM.
In the case of `Cc1c(-c2ccnc(Nc3ccc(NS(C)(=O)=O)cc3)n2)c(C)n2c1C(=O)NCC2` [Example I-20, N-{4-[4-(6,8-Dimethyl-1-oxo-1,2,3,4-tetrahydro-pyrrolo[1,2-a]pyrazin-7-yl)-pyrimidin-2-ylamino]-phenyl}-methanesulfonamide], the IC50 is reported as < 1000 nM.
With `CCN(CC)CCCNS(=O)(=O)c1ccc(Nc2nccc(-c3c(C)c4n(c3C)CCNC4=O)n2)cc1C` [Example I-21, N-(3-Diethylamino-propyl)-4-[4-(6,8-dimethyl-1-oxo-1,2,3,4-tetrahydro-pyrrolo[1,2-a]pyrazin-7-yl)-pyrimidin-2-ylamino]-2-methyl-benzenesulfonamide] the IC50 was < 10000 nM.
For `COc1cc(Nc2nccc(-c3c(C)c4n(c3C)CCNC4=O)n2)ccc1S(=O)(=O)N1CCCCC1` [Example I-22, 7-{2-[3-Methoxy-4-(piperidine-1-sulfonyl)-phenylamino]-pyrimidin-4-yl}-6,8-dimethyl-3,4-dihydro-2H-pyrrolo[1,2-a]pyrazin-1-one], the IC50 was < 1000 nM.
For `COc1cc(Nc2nccc(-c3c(C)c4n(c3C)CCNC4=O)n2)ccc1S(=O)(=O)NCCN(C)C` [Example I-23, N-(2-Dimethylamino-ethyl)-4-[4-(6,8-dimethyl-1-oxo-1,2,3,4-tetrahydro-pyrrolo[1,2-a]pyrazin-7-yl)-pyrimidin-2-ylamino]-2-methoxy-benzenesulfonamide], the IC50 was < 1000 nM.
For `COc1cc(Nc2nccc(-c3c(C)c4n(c3C)CCNC4=O)n2)ccc1S(=O)(=O)N1CCN(C)CC1` [Example I-24, 7-{2-[3-Methoxy-4-(4-methyl-piperazine-1-sulfonyl)-phenylamino]-pyrimidin-4-yl}-6,8-dimethyl-3,4-dihydro-2H-pyrrolo[1,2-a]pyrazin-1-one], the IC50 was < 1000 nM.
With `Cc1c(-c2ccnc(Nc3cccc(C(=O)O)c3)n2)c(C)n2c1C(=O)NCC2` [Example I-25, [4-(6,8-Dimethyl-1-oxo-1,2,3,4-tetrahydro-pyrrolo[1,2-a]pyrazin-7-yl)-pyrimidin-2-ylamino]-benzoic acid] the IC50 was < 1000 nM.
With `Cc1c(-c2ccnc(Nc3ccc(C(=O)O)cc3)n2)c(C)n2c1C(=O)NCC2` [Example I-26, 4-[4-(6,8-Dimethyl-1-oxo-1,2,3,4-tetrahydro-pyrrolo[1,2-a]pyrazin-7-yl)-pyrimidin-2-ylamino]-benzoic acid] the IC50 was < 100 nM.
`COc1cc(C(=O)O)ccc1Nc1nccc(-c2c(C)c3n(c2C)CCNC3=O)n1` [Example I-27, 4-[4-(6,8-Dimethyl-1-oxo-1,2,3,4-tetrahydro-pyrrolo[1,2-a]pyrazin-7-yl)-pyrimidin-2-ylamino]-3-methoxy-benzoic acid] was tested, and the IC50 was < 1000 nM.
With `COc1ccc(Nc2nccc(-c3c(C)c4n(c3C)CCNC4=O)n2)cc1O` [Example I-28, 7-[2-(3-Hydroxy-4-methoxy-phenylamino)-pyrimidin-4-yl]-6,8-dimethyl-3,4-dihydro-2H-pyrrolo[1,2-a]pyrazin-1-one] the IC50 was < 1000 nM.
In the case of `Cc1c(-c2ccnc(Nc3ccc4c(c3)OCO4)n2)c(C)n2c1C(=O)NCC2` [Example I-29, 7-[2-(Benzo-[1,3]dioxol-5-ylamino)-pyrimidin-4-yl]-6,8-dimethyl-3,4-dihydro-2H-pyrrolo[1,2-a]pyrazin-1-one], the IC50 is reported as < 1000 nM.
With `Cc1c(-c2ccnc(Nc3cccc(OC(F)(F)F)c3)n2)c(C)n2c1C(=O)NCC2` [Example I-30, 6,8-Dimethyl-7-[2-(3-trifluoromethoxy-phenylamino)pyrimidin-4-yl]-3,4-dihydro-2H-pyrrolo[1,2-a]pyrazin-1-one] the IC50 was < 10000 nM.
